# Measured values from US8507411B2, “Neoglycorandomization and digitoxin analogs” (priority 2004, dated 2013).
# pIC50: −log10 of the molar value. Read-outs that look alike come from different tables or passages of the source.
# Experiments:
# HCT-116 = experiment: High-throughput calcein AM cytotoxicity assay, HCT-116; format: cell-based, human
# From the text: (§1) Standard errors are depicted with error bars.
# Du145 = experiment: High-throughput calcein AM cytotoxicity assay, Du145; format: cell-based, human
# From the text: as §1
# NCI-H460 = experiment: High-throughput calcein AM cytotoxicity assay, NCI-H460; format: cell-based, human
# From the text: as §1
# Hep3B = experiment: High-throughput calcein AM cytotoxicity assay, Hep3B; format: cell-based, human
# From the text: as §1
# NCI/ADR-RES = experiment: cells; format: cell-based, human
# In short: (§2)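 Compounds were tested at five concentrations in two-fold steps against attached cells and incubated for 72 h. Live cells were then quantified by calcein fluorescence after a 30 min calcein AM loading at 37 °C. Percent inhibition versus log concentration was fitted to a four-parameter logistic model.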
# SF-268 = experiment: cells; format: cell-based, human
# In short: as §2
# SK-OV-3 = experiment: cells; format: cell-based, human
# In short: as §2
# [1] = Hydrolytic stability of the neoglycosidic linkage; format: physicochemical; details: 3 mM in 1:1 DMSO/buffer, one month
# Protocol: FIG. 4 is a graphic representation of the results of studies on the hydrolytic stability of neoglycoside 4α. The chemical stability of the neoglycosidic linkage was examined by monitoring the hydrolytic degradation of neoglycoside 4α in a 3 mM solution of 1:1 DMSO/buffer. Three buffers were used, 50 mM acetate buffer (pH 5), 50 mM phosphate buffer (pH 7), and 50 mM Tris buffer (pH 9). Neoglycoside degradation was monitored by reverse phase HPLC on an Agilent Zorbax Eclipse XDB-C8 column (4.6×150 mm) with a flow rate of 0.8 mL min^−1 and a linear gradient of 49% CH3OH/H2O to 89% CH3OH/H2O over 20 min. At t=0, neoglycoside 4α in 500 μL DMSO was added to 500 μL buffer, and the resulting solution was vortexed for 40 sec, then immediately injected onto the HPLC. Peak areas at 220 nm were used to estimate the neoglycoside/aglycon ratio, which is reported as “percent neoglycoside remaining” [Aneoglycoside/(Aneoglycoside+Aaglycon)] for each of the three buffer systems.
# Hydrolytic Stability of 4α. The chemical stability of the neoglycosidic linkage was examined by monitoring the hydrolytic degradation of neoglycoside 4α in a 3 mM solution of 1:1 DMSO/buffer. Three buffers were used, 50 mM acetate buffer (pH 5), 50 mM phosphate buffer (pH 7), and 50 mM Tris buffer (pH 9). Neoglycoside degradation was monitored by reverse phase HPLC on an Agilent Zorbax Eclipse XDB-C8 column (4.6×150 mm) with a flow rate of 0.8 mL min^−1 and a linear gradient of 49% CH3OH/H2O to 89% CH3OH/H2O over 20 min. At t=0, neoglycoside 4α in 500 μL DMSO was added to 500 μL buffer, and the resulting solution was vortexed for 40 sec, then immediately injected onto the HPLC. Peak areas at 220 nm were used to estimate the neoglycoside/aglycon ratio, which is reported as “percent neoglycoside remaining” [Aneoglycoside/(Aneoglycoside+Aaglycon)] for each of the three buffer systems (see FIG. 4).
# The chemical stability of the neoglycosidic linkage was examined by monitoring the hydrolytic degradation of neoglycoside 4α in a 3 mM solution of 1:1 DMSO/buffer using buffers at three different pHs.
# MCF7 = experiment: High-throughput calcein AM cytotoxicity assay, MCF7; format: cell-based, human
# From the text: as §1
# A549 = experiment: High-throughput calcein AM cytotoxicity assay, A549; format: cell-based, human
# From the text: as §1
# NmuMG = experiment: cells; format: cell-based, mouse
# In short: as §2
# Na+/K+-ATPase [2] = target: T1, Na+/K+-ATPase (Homo sapiens, UniProt P05023); experiment: Non-radioactive rubidium ion uptake assay, HEK-293 cells; format: cell-based; details: read-out: Na+/K+-ATPase Inhibition IC50
# T1 construct: endogenous in cells; host or cells: HEK-293
# Protocol: (§3) Na/K-ATPase Assays. Inhibition of Na^+/K^+-ATPase on HEK-293 cells and CHO-K1 cells by the library hits was determined by Aurora Biomed, Inc. using a high-throughput non-radioactive rubidium ion uptake assay. Experiments were conducted in duplicate using three different concentrations. Within each experiment, percent inhibition values at the three concentrations were expressed as the percent reduction of the maximum absorption signal observed for a 0 nM control. IC50 values were determined using the following formula: IC50=[(50−low %)/(high %−low %)]×(high conc.−low conc.)+low conc.
# (§4) To assess how these structural modifications impact the ability of library members to inhibit Na^+/K^+-ATPases, a fundamental activity of cardiac glycosides (Paula, S., et al., (2005) Biochemistry 44, 498-510), library hits 5β, 15β, 23β, 27β, 33β, 40β, and digitoxin (1) were submitted to a non-radioactive rubidium uptake assay to gauge Na^+/K^+-ATPase inhibition in both […] human embryonic kidney cells and CHO-K1 hamster ovary cells (Gill, S. et al., (2004) ASSAY and Drug Development Technologies 2, 535-542).
# Na+/K+-ATPase [3] = target: Na+/K+-ATPase (Cricetulus griseus, UniProt A0A8C2N4Z0); experiment: Non-radioactive rubidium ion uptake assay, CHO-K1 cells; format: cell-based, hamster; details: read-out: Na+/K+-ATPase Inhibition IC50
# Protocol: as §3, §4
# [4] = tested on: nine human cancer cell lines and a mouse mammary normal epithelial control line; experiment: High-throughput calcein AM cytotoxicity assay, whole cell line panel; details: cell line panel, 72 h, calcein AM
# From the text: In the assay, live cells were distinguished by the presence of a ubiquitous intracellular enzymatic activity which converts the non-fluorescent cell-permeable molecule calcein AM to the intensely fluorescent molecule calcein, which is retained within live cells. The IC50 value for each library member represents at least six replicates of dose-response experiments conducted over five concentrations using two-fold dilutions. […] Standard errors are depicted with error bars. Numerical values and corresponding error values can be found in Table 4. Du145: […]; MCF7: human breast carcinoma; HCT-116: human colon carcinoma, Hep3B: human liver carcinoma; SF-268: human CNS glioblastoma; SK-OV-3: human ovary adenocarcinoma; NCI-H460: human lung carcinoma; A549: human lung adenocarcinoma; NCI/ADR-RES: human breast carcinoma; NmuMG: mouse mammary normal epithelial.
# Cell Culture: All cell lines except NmuMG were maintained in RPMI 1640 medium from InVitrogen (Cat No. 11875-085) supplemented with 10% w/v fetal bovine serum (FBS) from ICN (Cat No. 2916154) and penicillin-streptomycin (PS) (100 U/mL and 100 μg/mL) from InVitrogen (Cat No. 15140-122). NmuMG cells were maintained in DMEM medium from InVitrogen (Cat No. 11965-084) supplemented with 10% w/v fetal bovine serum (FBS) from ICN (Cat No. 2916154), 10 μg/ml insulin (InVitrogen Cat No 12585-014), and penicillin-streptomycin (PS) (100 U/mL and 100 μg/mL) from InVitrogen (Cat No. 15140-122). Cells were harvested by trypsinization using 0.25% w/v trypsin and 0.1% w/v EDTA from InVitrogen (Cat No. 15-050-057) and then counted in a hemocytometer in duplicate with better than 10% agreement in field counts. Cells were plated at a cell density of 10,000-15,000 cells/well of each Corning Costar 96-well black tissue culture treated microtiter plate (Fisher Cat No. 07-200-627). Cells were grown for 1 h at 37° C., with 5% CO2 in a humidified incubator to allow cell attachment to occur before compound addition.
# Library Member Handling and Preparation for Cytotoxicity Assays: Library members were stored at −20° C. under dessicating conditions before the assay. Library member stocks (100×) were prepared in Corning Costar polypropylene 96-well V-bottom polypropylene microtiter plates (Fisher Cat No. 07-200-695). Five serial 1:2 dilutions were made with anhydrous DMSO at 100× the final concentration used in the assay.
# Library Member Addition: The library member-containing plates were diluted 1:10 with complete cell culture media. The 10× stocks (10 μL) were added to the attached cells using a Biomek FX liquid handler (Beckman-Coulter). Library member stocks (10 μL) were added to 90 μL of cells in each plate to insure full mixing of stocks with culture media using a Beckman FX liquid handler with 96-well head.
# Determination of Cytotoxicity: Cells were incubated with the library members for 72 h before fluorescence reading. Test plates were removed from the incubator and washed 1× in sterile PBS to remove serum containing calcium esterases. Calcein AM reagent (30 μL, […]) was added and the cells were incubated for 30 min at 37° C. Plates were read for emission using a fluorescein filter (excitation 485 nm, emission 535 nm).
# IC50 Calculation: For each library member, at least six dose response experiments were conducted. […] To calculate IC50, percent inhibitions were plotted as a function of log [concentration] and then fit to a four-parameter logistic model that allowed for a variable Hill slope using XLfit 4.1.
# Cytotoxicity Assays. All cell lines except NmuMG were maintained in RPMI 1640 medium supplemented with 10% w/v fetal bovine serum (FBS) and penicillin-streptomycin (PS) (100 U/mL and 100 μg/mL).
# [5] = HCT-116 cells, read-out: IC50, HCT-116
# [6] = NCI-H460 cells, read-out: IC50, NCI-H460
# [7] = NCI/ADR-RES cells, read-out: IC50, NCI/ADR-RES
# [8] = SF-268 cells, read-out: IC50, SF-268
# [9] = SK-OV-3 cells, read-out: IC50, SK-OV-3
# [10] = MCF7 cells, read-out: IC50, MCF7
# [11] = A549 cells, read-out: IC50, A549
# [12] = NmuMG mouse mammary normal epithelial control line, read-out: IC50, NmuMG
molecule,measurement,setting,value
"CON([C@@H]1CC[C@@]2(C)[C@H](CC[C@@H]3[C@@H]2CC[C@]2(C)[C@@H](C4=CC(=O)OC4)CC[C@]32O)C1)[C@@H]1O[C@H](CO)[C@@H](O)[C@H](O)[C@H]1O [4α, D-glucoside]",pIC50,"HCT-116; HCT-116 cells, read-out: IC50",< 4.60
same,pIC50,"Du145; Du145 cells, read-out: IC50",< 4.60
same,pIC50,"NCI-H460; NCI-H460 cells, read-out: IC50",< 4.60
same,pIC50,"Hep3B; Hep 3B cells, read-out: IC50",< 4.60
same,pIC50,"NCI/ADR-RES; NCI/ADR-RES cells, read-out: IC50",< 4.60
same,pIC50,"SF-268; SF-268 cells, read-out: IC50",< 4.60
same,pIC50,"SK-OV-3; SK-OV-3 cells, read-out: IC50",< 4.60
same,hydrolytic stability,[1]; acidic conditions (pH 5),slowly hydrolyzed
same,hydrolytic stability,"[1]; neutral or basic conditions (pH 7, pH 9)",completely stable
same,pIC50,"MCF7; MCF7 cells, read-out: IC50",< 4.60
same,pIC50,"A549; A549 cells, read-out: IC50",< 4.60
same,pIC50,"NmuMG; NmuMG cells (mouse mammary normal epithelial control line), read-out: IC50",< 4.60
"CON(C1CCC2(C)C(CCC3C2CCC2(C)C(C4=CC(=O)OC4)CCC32O)C1)C1OC(CO)C(O)C(O)C1O [40β, D-taloside]",pIC50,HCT-116; [5],5.72
same,pIC50,"Du145; Du145, 72 h, calcein AM, read-out: IC50",6.70
same,pIC50,NCI-H460; [6],6.10
same,pIC50,"Hep3B; Hep3B, 72 h, calcein AM, read-out: IC50",6.74
same,pIC50,Na+/K+-ATPase [2],< 3.70
same,pIC50,NCI/ADR-RES; [7],5.72
same,pIC50,SF-268; [8],5.89
same,pIC50,SK-OV-3; [9],6.31
same,pIC50,Na+/K+-ATPase [3],3.74
same,pIC50,MCF7; [10],5.85
same,pIC50,A549; [11],6.39
same,pIC50,NmuMG; [12],6.32
D-arabinoside [33β],cytotoxicity (in words),[4],closely mimicked this activity
same,pIC50,HCT-116; [5],6.44
same,pIC50,"Du145; Du145 cells, read-out: IC50, Du145",6.77
same,pIC50,NCI-H460; [6],6.48
same,pIC50,"Hep3B; Hep 3B cells, read-out: IC50, Hep 3B",6.59
same,pIC50,Na+/K+-ATPase [2],< 3.52
same,pIC50,NCI/ADR-RES; [7],6.91
same,pIC50,SF-268; [8],6.80
same,pIC50,SK-OV-3; [9],6.33
same,pIC50,Na+/K+-ATPase [3],3.77
same,pIC50,MCF7; [10],6.52
same,pIC50,A549; [11],6.47
same,pIC50,NmuMG; [12],6.92
"CON(C1CCC2(C)C(CCC3C2CCC2(C)C(C4=CC(=O)OC4)CCC32O)C1)C1OCC(O)C(O)C1O [15β, D-lyxoside]",cytotoxicity (in words),[4],significantly more potent than digitoxin against some cell lines
same,pIC50,"HCT-116; Homo sapiens, HCT-116, HCT-116 cells, read-out: IC50, HCT-116",6.77
same,pIC50,"Du145; Homo sapiens, DU-145, Du145 cells, read-out: IC50, Du145",7.15
same,pIC50,"NCI-H460; Homo sapiens, NCI-H460, NCI-H460 cells, read-out: IC50, NCI-H460",7.05
same,pIC50,"Hep3B; Homo sapiens, Hep3B, Hep 3B cells, read-out: IC50, Hep 3B",7.05
same,pIC50,Na+/K+-ATPase [2],< 3.52
same,pIC50,"NCI/ADR-RES; Homo sapiens, NCI/ADR-RES, read-out: IC50, NCI/ADR-RES, NCI/ADR-RES cells",7.12
same,pIC50,"SF-268; Homo sapiens, SF-268, read-out: IC50, SF-268, SF-268 cells",7.05
same,pIC50,"SK-OV-3; Homo sapiens, SK-OV-3, read-out: IC50, SK-OV-3, SK-OV-3 cells",6.80
same,pIC50,"MCF7; Homo sapiens, MCF7, MCF7 cells, read-out: IC50, MCF7",6.64
same,pIC50,"A549; Homo sapiens, A549, A549 cells, read-out: IC50, A549",6.85
same,pIC50,"NmuMG; Mus musculus, read-out: IC50, NmuMG",7.16
